Assay results from the supplement of paper PMC12463676, “Small-molecule dissolution of stress granules by redox modulation benefits ALS models” (Nature Chemical Biology, 2025).

Assays:
lipoamide = compound: NC(=O)CCCCC1CCSS1 [lipoamide]; experiment: thermal stability z-score vs DMSO; higher = more thermally stabilized by treatment; conditions: HeLa, lipoamide concentration 100 µM
Description: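 Cellular thermal proteome profiling in HeLa cells. Cells were treated with 100 µM lipoamide for 1 h, with or without 1 mM arsenate for a further 1 h, then heated to ten temperatures (37-66.3 °C), and soluble protein was quantified by TMT mass spectrometry relative to 0.1% DMSO controls. The thermal stability score (sum of log2 fold changes minus the abundance score) was transformed to a z-score; mean of n = 3 experiments.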

potassium arsenate = compound: O=[As]([O-])(O)O.[K+] [potassium arsenate]; experiment: as above; conditions: HeLa; arsenate concentration 1 mM
Description: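 Cellular thermal proteome profiling in HeLa cells treated with 1 mM arsenate for 1 h (DMSO pretreatment), heated to ten temperatures (37-66.3 °C). Soluble protein was quantified by TMT mass spectrometry relative to DMSO controls; the thermal stability score was transformed to a z-score; mean of n = 3 experiments.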

[1] = arsenate co-treatment: 1 mM arsenate 1 h
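Also: each temperature applied for 3 min, abundance score taken as mean log2 fold change at the two lowest temperatures, z-score obtained by mean subtraction and division by SD.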

UniProt P09871, sequence (P09871 whole entry): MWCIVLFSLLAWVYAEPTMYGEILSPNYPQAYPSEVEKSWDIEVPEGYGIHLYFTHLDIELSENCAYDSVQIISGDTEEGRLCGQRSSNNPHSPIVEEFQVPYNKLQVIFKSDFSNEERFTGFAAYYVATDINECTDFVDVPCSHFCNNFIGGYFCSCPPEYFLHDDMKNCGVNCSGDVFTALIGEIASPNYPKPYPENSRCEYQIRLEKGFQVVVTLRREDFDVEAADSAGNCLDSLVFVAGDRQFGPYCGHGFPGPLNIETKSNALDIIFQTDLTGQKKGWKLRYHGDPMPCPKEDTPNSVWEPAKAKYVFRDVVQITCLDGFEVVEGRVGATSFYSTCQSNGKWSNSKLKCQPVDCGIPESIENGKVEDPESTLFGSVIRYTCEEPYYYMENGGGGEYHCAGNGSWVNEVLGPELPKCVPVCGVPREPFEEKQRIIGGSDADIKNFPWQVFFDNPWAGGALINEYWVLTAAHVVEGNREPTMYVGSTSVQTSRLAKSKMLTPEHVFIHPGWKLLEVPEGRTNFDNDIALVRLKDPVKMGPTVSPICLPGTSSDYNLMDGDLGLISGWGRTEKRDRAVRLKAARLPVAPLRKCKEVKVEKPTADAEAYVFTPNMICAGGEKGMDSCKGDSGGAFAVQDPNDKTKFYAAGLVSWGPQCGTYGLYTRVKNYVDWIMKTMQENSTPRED
UniProt P63098, sequence (P63098 whole entry, looked up): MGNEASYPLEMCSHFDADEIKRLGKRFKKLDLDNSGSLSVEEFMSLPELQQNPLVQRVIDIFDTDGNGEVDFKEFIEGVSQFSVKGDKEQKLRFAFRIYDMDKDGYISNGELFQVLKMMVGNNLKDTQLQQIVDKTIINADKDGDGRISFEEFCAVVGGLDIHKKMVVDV
UniProt Q8NBI2, sequence (Q8NBI2 whole entry): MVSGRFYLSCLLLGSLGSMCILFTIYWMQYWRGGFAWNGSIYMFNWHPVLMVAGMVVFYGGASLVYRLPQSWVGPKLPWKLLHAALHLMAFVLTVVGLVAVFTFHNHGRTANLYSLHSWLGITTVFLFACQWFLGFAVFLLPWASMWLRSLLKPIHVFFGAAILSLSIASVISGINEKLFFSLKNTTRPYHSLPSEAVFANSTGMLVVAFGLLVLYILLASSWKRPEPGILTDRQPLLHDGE
UniProt Q9Y333, sequence (Q9Y333 whole entry): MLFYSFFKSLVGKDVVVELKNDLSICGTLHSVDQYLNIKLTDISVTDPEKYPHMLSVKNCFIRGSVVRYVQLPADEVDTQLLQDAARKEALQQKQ
UniProt Q9H410, sequence (Q9H410 whole entry): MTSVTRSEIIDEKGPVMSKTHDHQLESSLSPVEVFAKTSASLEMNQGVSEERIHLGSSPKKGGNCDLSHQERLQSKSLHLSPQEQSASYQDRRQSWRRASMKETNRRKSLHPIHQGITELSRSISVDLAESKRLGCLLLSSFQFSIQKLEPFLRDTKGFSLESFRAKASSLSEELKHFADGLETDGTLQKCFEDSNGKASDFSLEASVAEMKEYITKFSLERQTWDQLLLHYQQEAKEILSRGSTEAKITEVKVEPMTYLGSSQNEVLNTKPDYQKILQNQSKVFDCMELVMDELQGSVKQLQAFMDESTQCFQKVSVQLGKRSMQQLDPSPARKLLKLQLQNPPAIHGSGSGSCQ
UniProt O94760, sequence (O94760 whole entry): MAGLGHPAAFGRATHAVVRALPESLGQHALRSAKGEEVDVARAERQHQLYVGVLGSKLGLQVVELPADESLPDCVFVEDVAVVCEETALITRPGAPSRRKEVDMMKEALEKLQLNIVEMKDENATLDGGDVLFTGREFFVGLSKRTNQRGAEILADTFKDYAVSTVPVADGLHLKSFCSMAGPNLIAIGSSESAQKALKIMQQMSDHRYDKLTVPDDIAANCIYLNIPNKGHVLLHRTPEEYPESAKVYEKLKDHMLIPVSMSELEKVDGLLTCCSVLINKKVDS
UniProt Q92896, sequence (Q92896 whole entry): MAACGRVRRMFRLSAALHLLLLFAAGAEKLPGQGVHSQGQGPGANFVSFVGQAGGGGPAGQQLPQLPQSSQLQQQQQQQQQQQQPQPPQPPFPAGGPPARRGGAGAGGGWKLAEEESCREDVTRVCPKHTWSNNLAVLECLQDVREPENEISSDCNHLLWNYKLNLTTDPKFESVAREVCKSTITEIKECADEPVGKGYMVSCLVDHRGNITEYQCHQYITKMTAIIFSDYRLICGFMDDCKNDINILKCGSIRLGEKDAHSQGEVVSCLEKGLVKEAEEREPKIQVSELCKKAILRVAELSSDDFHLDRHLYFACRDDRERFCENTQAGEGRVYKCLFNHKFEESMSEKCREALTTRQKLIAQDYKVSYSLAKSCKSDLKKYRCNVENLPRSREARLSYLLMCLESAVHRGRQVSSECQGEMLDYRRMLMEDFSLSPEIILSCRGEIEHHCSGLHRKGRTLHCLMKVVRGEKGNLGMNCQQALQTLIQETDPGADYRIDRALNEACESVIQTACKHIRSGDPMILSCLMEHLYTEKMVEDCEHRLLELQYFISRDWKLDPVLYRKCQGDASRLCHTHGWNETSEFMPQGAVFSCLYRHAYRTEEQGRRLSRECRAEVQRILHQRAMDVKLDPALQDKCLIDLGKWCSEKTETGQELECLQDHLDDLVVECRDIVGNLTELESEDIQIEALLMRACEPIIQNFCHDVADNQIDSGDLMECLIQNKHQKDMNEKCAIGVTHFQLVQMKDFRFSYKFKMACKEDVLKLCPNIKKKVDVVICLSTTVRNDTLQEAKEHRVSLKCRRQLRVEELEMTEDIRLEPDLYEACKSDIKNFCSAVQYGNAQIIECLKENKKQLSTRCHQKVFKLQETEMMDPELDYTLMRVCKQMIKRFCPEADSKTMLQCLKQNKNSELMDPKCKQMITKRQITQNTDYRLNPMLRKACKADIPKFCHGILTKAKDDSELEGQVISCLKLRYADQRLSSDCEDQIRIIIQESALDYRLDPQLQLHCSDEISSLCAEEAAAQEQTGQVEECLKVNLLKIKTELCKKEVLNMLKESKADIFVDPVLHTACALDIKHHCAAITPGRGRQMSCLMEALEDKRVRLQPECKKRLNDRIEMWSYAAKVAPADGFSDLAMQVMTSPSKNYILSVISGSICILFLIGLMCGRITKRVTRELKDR
UniProt Q86Y56, sequence (Q86Y56 whole entry): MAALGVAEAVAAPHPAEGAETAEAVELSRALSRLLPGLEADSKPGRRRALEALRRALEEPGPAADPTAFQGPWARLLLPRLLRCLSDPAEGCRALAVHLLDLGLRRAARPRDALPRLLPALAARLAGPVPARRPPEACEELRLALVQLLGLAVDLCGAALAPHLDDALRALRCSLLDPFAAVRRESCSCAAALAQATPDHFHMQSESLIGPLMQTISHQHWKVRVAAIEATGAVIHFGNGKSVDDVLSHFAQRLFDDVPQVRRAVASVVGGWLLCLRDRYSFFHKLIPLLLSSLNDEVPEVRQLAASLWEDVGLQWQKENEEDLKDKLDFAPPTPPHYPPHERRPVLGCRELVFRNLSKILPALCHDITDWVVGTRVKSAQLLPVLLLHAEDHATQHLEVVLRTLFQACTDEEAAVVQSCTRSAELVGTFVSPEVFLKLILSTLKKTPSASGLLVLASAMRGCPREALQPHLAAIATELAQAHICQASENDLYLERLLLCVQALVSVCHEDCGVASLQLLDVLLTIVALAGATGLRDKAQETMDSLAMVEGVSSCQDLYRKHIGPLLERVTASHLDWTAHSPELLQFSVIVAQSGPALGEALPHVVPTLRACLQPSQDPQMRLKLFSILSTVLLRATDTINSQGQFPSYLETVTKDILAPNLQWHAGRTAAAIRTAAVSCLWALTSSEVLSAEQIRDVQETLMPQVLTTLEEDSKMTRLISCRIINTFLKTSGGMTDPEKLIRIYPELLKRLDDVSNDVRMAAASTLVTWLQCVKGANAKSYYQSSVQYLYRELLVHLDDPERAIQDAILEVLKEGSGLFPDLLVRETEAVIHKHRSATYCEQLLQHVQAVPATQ
UniProt Q86W56, sequence (Q86W56 whole entry, looked up): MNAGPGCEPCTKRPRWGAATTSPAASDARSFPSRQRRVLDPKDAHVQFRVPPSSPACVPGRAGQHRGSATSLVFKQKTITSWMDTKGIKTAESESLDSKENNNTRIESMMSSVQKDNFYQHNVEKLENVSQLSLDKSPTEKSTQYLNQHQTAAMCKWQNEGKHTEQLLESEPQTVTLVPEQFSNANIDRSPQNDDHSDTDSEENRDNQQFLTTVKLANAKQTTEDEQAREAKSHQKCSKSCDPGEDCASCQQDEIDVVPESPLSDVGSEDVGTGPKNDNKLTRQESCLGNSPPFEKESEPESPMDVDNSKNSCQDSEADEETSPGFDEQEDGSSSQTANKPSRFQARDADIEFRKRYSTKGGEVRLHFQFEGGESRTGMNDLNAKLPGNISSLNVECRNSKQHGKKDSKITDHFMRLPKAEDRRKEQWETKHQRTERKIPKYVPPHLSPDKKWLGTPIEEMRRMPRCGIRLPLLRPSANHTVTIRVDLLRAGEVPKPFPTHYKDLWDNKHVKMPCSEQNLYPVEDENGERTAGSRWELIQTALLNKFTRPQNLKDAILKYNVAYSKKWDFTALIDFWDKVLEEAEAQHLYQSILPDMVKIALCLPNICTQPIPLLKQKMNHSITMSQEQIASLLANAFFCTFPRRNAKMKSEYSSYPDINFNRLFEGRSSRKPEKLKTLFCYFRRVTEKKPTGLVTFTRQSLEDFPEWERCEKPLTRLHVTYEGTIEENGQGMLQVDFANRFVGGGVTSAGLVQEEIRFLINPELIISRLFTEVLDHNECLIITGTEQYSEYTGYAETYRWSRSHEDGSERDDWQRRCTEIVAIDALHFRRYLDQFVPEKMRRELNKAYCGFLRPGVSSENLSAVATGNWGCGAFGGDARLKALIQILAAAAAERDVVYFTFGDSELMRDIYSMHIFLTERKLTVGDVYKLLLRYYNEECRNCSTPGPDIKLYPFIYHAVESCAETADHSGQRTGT
UniProt Q4G0I0, sequence (Q4G0I0 whole entry): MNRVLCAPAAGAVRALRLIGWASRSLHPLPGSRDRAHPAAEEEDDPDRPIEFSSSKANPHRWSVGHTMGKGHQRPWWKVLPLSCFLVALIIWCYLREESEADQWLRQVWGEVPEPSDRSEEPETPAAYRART

Row | Target | thermal stability z-score (lipoamide; [1]) | thermal stability z-score (lipoamide; arsenate co-treatment: none) | thermal stability z-score (potassium arsenate)
1 | RNF114 (UniProt Q9Y508) | -0.534 | -0.407 | -1.6
2 | DDI2 (UniProt Q5TDH0) | -0.174 | -0.209 | -0.217
3 | NPR3 (UniProt P17342) | 0.2 | -0.339 | -0.486
4 | CYB561A3 (UniProt Q8NBI2) | -0.299 | -0.521 | -0.949
5 | TRIM16 (UniProt O95361) | -0.0466 | -0.0815 | -0.0294
6 | RHOT2 (UniProt Q8IXI1) | -0.832 | -0.929 | -0.176
7 | PTTG1 (UniProt O95997) | -1.19 | -1.5 | -1.58
8 | PBK (UniProt Q96KB5) | -0.583 | -0.307 | 0.533
9 | SH3D19 (UniProt Q5HYK7) | 0.277 | 0.225 | 0.228
10 | RPL13 (UniProt P26373) | -0.064 | 0.00879 | -1.05
11 | PLOD1 (UniProt Q02809) | -4.26 | -3.77 | 1.2
12 | PEX5 (UniProt P50542) | -0.624 | -0.706 | 0.137
13 | DFFA (UniProt O00273) | 0.376 | 0.555 | 0.443
14 | NKIRAS1 (UniProt Q9NYS0) | -0.202 | -0.125 | -0.0379
15 | GALK1 (UniProt P51570) | -0.559 | -0.412 | -0.534
16 | DDAH1 (UniProt O94760) | 0.568 | 0.134 | 0.259
17 | ITSN2 (UniProt Q9NZM3) | -0.803 | -1.23 | -0.725
18 | DNAAF5 (UniProt Q86Y56) | -0.979 | 0.336 | 0.875
19 | PPP3R1 (UniProt P63098) | 0.0623 | 0.412 | 0.32
20 | TLCD1 (UniProt Q96CP7) | -0.0961 | -0.035 | 0.587
21 | DPYSL2 (UniProt Q16555) | 0.645 | 0.115 | -0.691
22 | GALNT6 (UniProt Q8NCL4) | -0.515 | -0.683 | -0.396
23 | MTPAP (UniProt Q9NVV4) | 0.621 | 0.936 | -0.28
24 | QSER1 (UniProt Q2KHR3) | -0.147 | -0.0194 | 0.0737

Row | Target | thermal stability z-score (lipoamide; [1]) | thermal stability z-score (lipoamide; arsenate co-treatment: none) | thermal stability z-score (potassium arsenate)
25 | GPATCH2 (UniProt Q9NW75) | -0.115 | 0.00549 | 0.239
26 | PANK3 (UniProt Q9H999) | 1.22 | 0.571 | 0.672
27 | TSPYL1 (UniProt Q9H0U9) | -0.00828 | -0.153 | 0.0344
28 | TXNDC15 (UniProt Q96J42) | -1.92 | -0.609 | 1.16
29 | C1S (UniProt P09871) | 0.0855 | -0.147 | 0.0687
30 | CCSMST1 (UniProt Q4G0I0) | 2.5 | 2.37 | 0.624
31 | CARD19 (UniProt Q96LW7) | 0.507 | 1.37 | 0.524
32 | SUMO1 (UniProt P63165) | -0.294 | -0.0784 | 1.09
33 | DCLK2 (UniProt Q8N568) | -0.19 | 0.0433 | 0.0241
34 | USE1 (UniProt Q9NZ43) | 0.872 | 0.37 | 1.13
35 | IBTK (UniProt Q9P2D0) | -0.734 | -0.319 | -0.576
36 | HTATIP2 (UniProt Q9BUP3) | -0.914 | -0.584 | 0.453
37 | CCT3 (UniProt P49368) | 0.066 | -0.106 | 0.00358
38 | COPA (UniProt P53621) | -0.0346 | 0.0865 | 0.594
39 | MMGT1 (UniProt Q8N4V1) | 0.584 | 0.397 | 0.966
40 | HIBADH (UniProt P31937) | -1.36 | -0.391 | -1.36
41 | FBXO2 (UniProt Q9UK22) | -0.743 | 0.137 | 0.0529
42 | PDCD10 (UniProt Q9BUL8) | 0.00718 | -0.0724 | 0.151
43 | STXBP4 (UniProt Q6ZWJ1) | -0.119 | 0.0111 | -0.111
44 | RACK1 (UniProt P63244) | 0.56 | 0.4 | -0.92
45 | GNPAT (UniProt O15228) | 0.161 | 0.296 | 0.518
46 | NOP56 (UniProt O00567) | 0.756 | -0.0331 | 0.516
47 | PRKAR1A (UniProt P10644) | -0.101 | 0.167 | -0.065
48 | PLS3 (UniProt P13797) | 0.368 | 0.603 | -0.117

Row | Target | thermal stability z-score (lipoamide; [1]) | thermal stability z-score (lipoamide; arsenate co-treatment: none) | thermal stability z-score (potassium arsenate)
49 | SPC24 (UniProt Q8NBT2) | -0.122 | 0.106 | -0.0105
50 | TDP1 (UniProt Q9NUW8) | 0.0423 | -0.0239 | -0.00328
51 | LIPA (UniProt P38571) | -0.674 | -0.352 | 0.119
52 | PAP1 (UniProt Q06141) | -0.00124 | -0.19 | -0.156
53 | HIST1H1C (UniProt P16403) | 0.707 | 0.018 | 0.0976
54 | GLCCI1 (UniProt Q86VQ1) | -0.207 | -0.418 | -0.627
55 | ALKBH1 (UniProt Q13686) | 0.0966 | 0.171 | 0.295
56 | PCCB (UniProt P05166) | 0.673 | -0.198 | -0.873
57 | STX10 (UniProt O60499) | -0.387 | -0.00805 | 0.516
58 | LSM2 (UniProt Q9Y333) | 0.00908 | 0.0523 | -0.136
59 | DSN1 (UniProt Q9H410) | 0.0417 | -0.0069 | 0.127
60 | SNRNP27 (UniProt Q8WVK2) | 0.418 | -0.21 | 0.444
61 | MANBA (UniProt O00462) | -1.33 | -1.4 | -0.726
62 | MRPS5 (UniProt P82675) | -0.158 | 0.0282 | 0.0198
63 | HELLS (UniProt Q9NRZ9) | -0.0381 | -0.0408 | -0.282
64 | ANKRD13A (UniProt Q8IZ07) | 0.0649 | -0.0472 | -0.0666
65 | GLG1 (UniProt Q92896) | -1.88 | -1.9 | -0.0446
66 | NUDT19 (UniProt A8MXV4) | -0.133 | 0.126 | -0.208
67 | PARG (UniProt Q86W56) | -0.123 | 0.257 | 0.0362
68 | BCOR (UniProt Q6W2J9) | 0.0203 | 0.0502 | -0.011
69 | TRIOBP (UniProt Q9H2D6) | -0.339 | -0.147 | 0.379
70 | NCAPG (UniProt Q9BPX3) | -0.382 | 0.295 | 0.883
71 | STX5 (UniProt Q13190) | 0.00395 | -0.95 | 0.0014
